Results taken from PubChem BioAssay (NCI).
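Cultured in 96-well plates, cells were exposed to test compound for 48 hours across five concentrations. At the GI50, growth is halved. TGI: total growth inhibition.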

Tests used:
Test in all cases: DTP human tumour cell line panel, 48 h
SF-539 CNS = tested on: SF-539 CNS
T-47D breast = tested on: T-47D breast
COLO 205 colon = tested on: COLO 205 colon
EKVX NSCLC = tested on: EKVX NSCLC
SNB-19 CNS = tested on: SNB-19 CNS
UACC-62 melanoma = tested on: UACC-62 melanoma
NCI-H522 lung = tested on: NCI-H522 lung
PC-3 prostate = tested on: PC-3 prostate
HCC-2998 colon = tested on: HCC-2998 colon
SW-620 colon = tested on: SW-620 colon
MOLT-4 leukemia = tested on: MOLT-4 leukemia
HL-60(TB) leukemia = tested on: HL-60(TB) leukemia
CCRF-CEM leukemia = tested on: CCRF-CEM leukemia
BT-549 breast = tested on: BT-549 breast
SK-MEL-2 melanoma = tested on: SK-MEL-2 melanoma
SR leukemia = tested on: SR leukemia
UACC-257 melanoma = tested on: UACC-257 melanoma
SK-OV-3 ovarian = tested on: SK-OV-3 ovarian
ACHN renal = tested on: ACHN renal
786-0 renal = tested on: 786-0 renal
A549 NSCLC = tested on: A549 NSCLC
MCF7 breast = tested on: MCF7 breast
SF-295 CNS = tested on: SF-295 CNS
OVCAR-8 ovarian = tested on: OVCAR-8 ovarian
SF-268 CNS = tested on: SF-268 CNS
TK-10 renal = tested on: TK-10 renal
HT29 colon = tested on: HT29 colon
RXF 393 renal = tested on: RXF 393 renal
IGROV1 ovarian = tested on: IGROV1 ovarian
NCI/ADR-RES ovarian = tested on: NCI/ADR-RES ovarian
KM12 colon = tested on: KM12 colon
HS 578T breast = tested on: HS 578T breast
HCT-116 colon = tested on: HCT-116 colon
SK-MEL-5 melanoma = tested on: SK-MEL-5 melanoma
RPMI-8226 leukemia = tested on: RPMI-8226 leukemia
MALME-3M melanoma = tested on: MALME-3M melanoma
A498 renal = tested on: A498 renal
SNB-75 CNS = tested on: SNB-75 CNS
UO-31 renal = tested on: UO-31 renal
SK-MEL-28 melanoma = tested on: SK-MEL-28 melanoma
HCT-15 colon = tested on: HCT-15 colon
NCI-H460 lung = tested on: NCI-H460 lung
SN12C renal = tested on: SN12C renal
LOX IMVI melanoma = tested on: LOX IMVI melanoma
NCI-H226 lung = tested on: NCI-H226 lung
HOP-62 NSCLC = tested on: HOP-62 NSCLC
OVCAR-4 ovarian = tested on: OVCAR-4 ovarian
OVCAR-5 ovarian = tested on: OVCAR-5 ovarian
CAKI-1 renal = tested on: CAKI-1 renal
DU-145 prostate = tested on: DU-145 prostate
M14 melanoma = tested on: M14 melanoma
K-562 leukemia = tested on: K-562 leukemia
HOP-92 NSCLC = tested on: HOP-92 NSCLC
MDA-MB-231 breast = tested on: MDA-MB-231 breast
U251 CNS = tested on: U251 CNS

Compound: Cc1ccccc1N1CCN(C2=C(Cl)C(=O)c3ncccc3C2=O)CC1
- GI50 (SF-539 CNS): 1.8 µM
- TGI (SF-539 CNS): 3.32 µM
- GI50 (T-47D breast): 1.9 µM
- TGI (T-47D breast): 4.35 µM
- GI50 (COLO 205 colon): 3.14 µM
- TGI (COLO 205 colon): 10.8 µM
- GI50 (EKVX NSCLC): 1.68 µM
- TGI (EKVX NSCLC): 3.1 µM
- GI50 (SNB-19 CNS): 30.3 µM
- TGI (SNB-19 CNS): > 100 µM
- GI50 (UACC-62 melanoma): 3.92 µM
- TGI (UACC-62 melanoma): 42.2 µM
- GI50 (NCI-H522 lung): 1.68 µM
- TGI (NCI-H522 lung): 3.31 µM
- GI50 (PC-3 prostate): 1.63 µM
- TGI (PC-3 prostate): 3.7 µM
- GI50 (HCC-2998 colon): 3.33 µM
- TGI (HCC-2998 colon): 13.8 µM
- GI50 (SW-620 colon): 1.48 µM
- TGI (SW-620 colon): 3.45 µM
- GI50 (MOLT-4 leukemia): 1.78 µM
- TGI (MOLT-4 leukemia): 4.95 µM
- GI50 (HL-60(TB) leukemia): 1.61 µM
- TGI (HL-60(TB) leukemia): 4.05 µM
- GI50 (CCRF-CEM leukemia): 1.73 µM
- TGI (CCRF-CEM leukemia): 5.19 µM
- GI50 (BT-549 breast): 1.96 µM
- TGI (BT-549 breast): 3.41 µM
- GI50 (SK-MEL-2 melanoma): 2.75 µM
- TGI (SK-MEL-2 melanoma): 14.8 µM
- GI50 (SR leukemia): 1 µM
- TGI (SR leukemia): 5 µM
- GI50 (UACC-257 melanoma): 1.98 µM
- TGI (UACC-257 melanoma): 4.25 µM
- GI50 (SK-OV-3 ovarian): 37.2 µM
- TGI (SK-OV-3 ovarian): > 100 µM
- GI50 (ACHN renal): 1.85 µM
- TGI (ACHN renal): 3.89 µM
- GI50 (786-0 renal): 1.71 µM
- TGI (786-0 renal): 3.09 µM
- GI50 (A549 NSCLC): 23.5 µM
- TGI (A549 NSCLC): > 100 µM
- GI50 (MCF7 breast): 1.46 µM
- TGI (MCF7 breast): 3.22 µM
- GI50 (SF-295 CNS): 14.7 µM
- TGI (SF-295 CNS): > 100 µM
- GI50 (OVCAR-8 ovarian): 1.91 µM
- TGI (OVCAR-8 ovarian): 4.35 µM
- GI50 (SF-268 CNS): 23.7 µM
- TGI (SF-268 CNS): > 100 µM
- GI50 (TK-10 renal): 4.76 µM
- TGI (TK-10 renal): > 100 µM
- GI50 (HT29 colon): 5.33 µM
- TGI (HT29 colon): > 100 µM
- GI50 (RXF 393 renal): 1.74 µM
- TGI (RXF 393 renal): 3.17 µM
- GI50 (IGROV1 ovarian): 1.97 µM
- TGI (IGROV1 ovarian): 4.09 µM
- GI50 (NCI/ADR-RES ovarian): 2.51 µM
- TGI (NCI/ADR-RES ovarian): 7.18 µM
- GI50 (KM12 colon): 48.1 µM
- TGI (KM12 colon): > 100 µM
- GI50 (HS 578T breast): 4.94 µM
- TGI (HS 578T breast): 85.3 µM
- GI50 (HCT-116 colon): 1.56 µM
- TGI (HCT-116 colon): 2.89 µM
- GI50 (SK-MEL-5 melanoma): 4.98 µM
- TGI (SK-MEL-5 melanoma): 17.7 µM
- GI50 (RPMI-8226 leukemia): 2 µM
- TGI (RPMI-8226 leukemia): 5.22 µM
- GI50 (MALME-3M melanoma): 2.03 µM
- TGI (MALME-3M melanoma): 4.64 µM
- GI50 (A498 renal): > 100 µM
- TGI (A498 renal): > 100 µM
- GI50 (SNB-75 CNS): 17.4 µM
- TGI (SNB-75 CNS): > 100 µM
- GI50 (UO-31 renal): 1.49 µM
- TGI (UO-31 renal): 2.86 µM
- GI50 (SK-MEL-28 melanoma): 2.19 µM
- TGI (SK-MEL-28 melanoma): 5.06 µM
- GI50 (HCT-15 colon): 1.69 µM
- TGI (HCT-15 colon): 4.52 µM
- GI50 (NCI-H460 lung): 6.68 µM
- TGI (NCI-H460 lung): 46.5 µM
- GI50 (SN12C renal): 3.56 µM
- TGI (SN12C renal): 78.9 µM
- GI50 (LOX IMVI melanoma): 1.65 µM
- TGI (LOX IMVI melanoma): 3.21 µM
- GI50 (NCI-H226 lung): 20.8 µM
- TGI (NCI-H226 lung): > 100 µM
- GI50 (HOP-62 NSCLC): 35.1 µM
- TGI (HOP-62 NSCLC): > 100 µM
- GI50 (OVCAR-4 ovarian): 1.75 µM
- TGI (OVCAR-4 ovarian): 3.23 µM
- GI50 (OVCAR-5 ovarian): 6.89 µM
- TGI (OVCAR-5 ovarian): 21.2 µM
- GI50 (CAKI-1 renal): 2.78 µM
- TGI (CAKI-1 renal): > 100 µM
- GI50 (DU-145 prostate): 3.8 µM
- TGI (DU-145 prostate): > 100 µM
- GI50 (M14 melanoma): 2.2 µM
- TGI (M14 melanoma): 6.45 µM
- GI50 (K-562 leukemia): 1.28 µM
- TGI (K-562 leukemia): 4.08 µM
- GI50 (HOP-92 NSCLC): 1.36 µM
- TGI (HOP-92 NSCLC): 2.7 µM
- GI50 (MDA-MB-231 breast): 1.71 µM
- TGI (MDA-MB-231 breast): 3.27 µM
- GI50 (U251 CNS): 6 µM
- TGI (U251 CNS): 25.6 µM
